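Assay format: 96-well plates, 48-hour exposure. GI50 is the concentration that inhibits growth by half. TGI: total growth inhibition.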
Key:
Assay in all cases: NCI tumour cell line growth inhibition, 48 h
OVCAR-8 ovarian = tested on: OVCAR-8 ovarian
TK-10 renal = tested on: TK-10 renal
UACC-62 melanoma = tested on: UACC-62 melanoma
OVCAR-5 ovarian = tested on: OVCAR-5 ovarian
SK-MEL-28 melanoma = tested on: SK-MEL-28 melanoma
A498 renal = tested on: A498 renal
HOP-92 NSCLC = tested on: HOP-92 NSCLC
ACHN renal = tested on: ACHN renal
SF-539 CNS = tested on: SF-539 CNS
UO-31 renal = tested on: UO-31 renal
SNB-75 CNS = tested on: SNB-75 CNS
DU-145 prostate = tested on: DU-145 prostate
RXF 393 renal = tested on: RXF 393 renal
MDA-MB-231 breast = tested on: MDA-MB-231 breast
OVCAR-4 ovarian = tested on: OVCAR-4 ovarian
LOX IMVI melanoma = tested on: LOX IMVI melanoma

C=C(C)[C@@H]1CC[C@]2(COCCCNCCCN)CC[C@]3(C)[C@H](CC[C@@H]4[C@@]5(C)CC[C@H](O)C(C)(C)[C@@H]5CC[C@]43C)[C@@H]12
GI50 (OVCAR-8 ovarian): 2.14 µM | TGI (OVCAR-8 ovarian): 4.88 µM | GI50 (TK-10 renal): 1.84 µM | TGI (TK-10 renal): 3.56 µM | GI50 (UACC-62 melanoma): 1.77 µM | TGI (UACC-62 melanoma): 3.39 µM | GI50 (OVCAR-5 ovarian): 1.75 µM | TGI (OVCAR-5 ovarian): 3.23 µM | GI50 (SK-MEL-28 melanoma): 1.75 µM | TGI (SK-MEL-28 melanoma): 3.37 µM | GI50 (A498 renal): 1.85 µM | TGI (A498 renal): 4.21 µM | GI50 (HOP-92 NSCLC): 1.52 µM | TGI (HOP-92 NSCLC): 3.14 µM | GI50 (ACHN renal): 1.78 µM | TGI (ACHN renal): 3.24 µM | GI50 (SF-539 CNS): 1.77 µM | TGI (SF-539 CNS): 3.39 µM | GI50 (UO-31 renal): 1.6 µM | TGI (UO-31 renal): 3.03 µM | GI50 (SNB-75 CNS): 1.73 µM | TGI (SNB-75 CNS): 3.37 µM | GI50 (DU-145 prostate): 1.94 µM | TGI (DU-145 prostate): 3.49 µM | GI50 (RXF 393 renal): 1.57 µM | TGI (RXF 393 renal): 2.96 µM | GI50 (MDA-MB-231 breast): 1.85 µM | TGI (MDA-MB-231 breast): 3.49 µM | GI50 (OVCAR-4 ovarian): 1.96 µM | TGI (OVCAR-4 ovarian): 3.73 µM | GI50 (LOX IMVI melanoma): 0.234 µM | TGI (LOX IMVI melanoma): 2.28 µM
